How the values were obtained:
Acetylcholinesterase [1] = molecular target: T1, Acetylcholinesterase (Homo sapiens, UniProt P22303); experiment: Kinetic constant (k-2) for acetylcholinesterase
Acetylcholinesterase [2] = molecular target: T1, Acetylcholinesterase; experiment: Dissociation constant for acetylcholinesterase
Acetylcholinesterase [3] = molecular target: T1, Acetylcholinesterase; experiment: Kinetic constant (k2) for acetylcholinesterase
Acetylcholinesterase [4] = molecular target: T1, Acetylcholinesterase; experiment: Inhibition constant for acetylcholinesterase
[5] = Carbamylation rate constant was determined
Acetylcholinesterase [6] = molecular target: T1, Acetylcholinesterase; experiment: Ratio of k2/k-2 for acetylcholinesterase

T1 sequence (P22303 whole entry): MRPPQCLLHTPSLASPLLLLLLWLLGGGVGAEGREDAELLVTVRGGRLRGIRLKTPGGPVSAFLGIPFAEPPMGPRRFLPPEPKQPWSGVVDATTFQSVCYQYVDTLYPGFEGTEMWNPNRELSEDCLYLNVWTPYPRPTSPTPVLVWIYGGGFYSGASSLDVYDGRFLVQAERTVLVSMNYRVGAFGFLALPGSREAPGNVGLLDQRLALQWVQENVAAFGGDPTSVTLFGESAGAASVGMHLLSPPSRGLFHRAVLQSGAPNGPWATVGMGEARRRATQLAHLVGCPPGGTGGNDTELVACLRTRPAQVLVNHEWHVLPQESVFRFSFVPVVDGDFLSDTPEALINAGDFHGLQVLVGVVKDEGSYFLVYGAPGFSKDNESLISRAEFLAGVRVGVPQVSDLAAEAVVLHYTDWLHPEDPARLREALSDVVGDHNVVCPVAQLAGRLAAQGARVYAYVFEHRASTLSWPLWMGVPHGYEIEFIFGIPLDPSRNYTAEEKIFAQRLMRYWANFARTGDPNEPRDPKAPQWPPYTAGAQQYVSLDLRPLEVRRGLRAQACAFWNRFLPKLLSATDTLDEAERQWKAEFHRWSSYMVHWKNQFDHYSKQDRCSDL

SMILES	k-2 (Acetylcholinesterase [1])	Ks (Acetylcholinesterase [2]) [µM]	k2 (Acetylcholinesterase [3])	Ki (Acetylcholinesterase [4]) [nM]	kc [5]	Ratio (Acetylcholinesterase [6])
CCCCNC(=O)OCCCCCCCCCCCCO	4 10e-3 1/s	0.65	8.1 10e-3 1/s	300	4.1 10e-3 1/s	2
CCCCNC(=O)OCCCCCCCCCCCCCCO	4 10e-3 1/s	0.45	5.3 10e-3 1/s	200	4.6 10e-3 1/s	1.3
CCCCNC(=O)OCCCCCCCCCCCCCCCCO	3 10e-3 1/s	0.37	6.1 10e-3 1/s	130	4.9 10e-3 1/s	2
CCCCNC(=O)OCCCCCCCCOC(=O)NCCCC	1.6 10e-3 1/s	0.39	4.2 10e-3 1/s	150	4 10e-3 1/s	2.6
CCCCNC(=O)OCCOC(=O)NCCCC	0.35 10e-3 1/s	2.9	2.8 10e-3 1/s	360	3 10e-3 1/s	8
CCCCNC(=O)OCCCCCCCCCCCCCCCCOC(=O)NCCCC	3.1 10e-3 1/s	0.34	6.1 10e-3 1/s	170	5.3 10e-3 1/s	2
CCCCNC(=O)OCCO	5 10e-3 1/s	2.3	7.5 10e-3 1/s		3.1 10e-3 1/s	1.5
CCCCNC(=O)OCCCCCCCCCCOC(=O)NCCCC	2 10e-3 1/s	0.37	4.6 10e-3 1/s	160	4.1 10e-3 1/s	2.3
CCCCNC(=O)OCCCCCO	5 10e-3 1/s	2.2	8.1 10e-3 1/s	1400	3.5 10e-3 1/s	2
CCCCNC(=O)OCCCCCCCCCCO	3.1 10e-3 1/s	0.52	7.6 10e-3 1/s	200	3.9 10e-3 1/s	2.5
CCCCNC(=O)OCCCCCCCCO	3 10e-3 1/s	0.88	7.2 10e-3 1/s	360	3.6 10e-3 1/s	2.4
CCCCNC(=O)OCCCCCCCCCCCCCCOC(=O)NCCCC	2.4 10e-3 1/s	0.36	5.4 10e-3 1/s	160	4.9 10e-3 1/s	2.3
CCCCNC(=O)OCCCCCCCCCCCCOC(=O)NCCCC	2.2 10e-3 1/s	0.36	5 10e-3 1/s	160	4.6 10e-3 1/s	2.2
CCCCNC(=O)OCCCCCOC(=O)NCCCC	0.62 10e-3 1/s	1.4	3.4 10e-3 1/s	250	3.3 10e-3 1/s	5.5

From ChEMBL document CHEMBL1141982, “A rate determining step change in the pre-steady state of acetylcholinesterase inhibitions by 1,n-alkane-di-N-butylcarbamates” (Bioorg Med Chem Lett, 2005)
